The nature of series [1]: Absorbance spectra / molar extinction coefficients at the maximum absorption wavelength. The class given is physicochemical. The following applies: water (containing 1% DMSO), acetonitrile, and dichloromethane; FIG. 33. The method, then: Specifically, to confirm the absorbing properties of two-photon absorbing fluorophores, the inventors measured absorbance spectra for Compounds 1 to 9 at the concentration of 10 μM in HEPES buffer (containing 1% DMSO, pH 7.4) and water (containing 1% DMSO), contained in quartz cells with a light path length of 1 cm, and the results are respectively shown in the left and right graphs of FIG. 2. Absorbance spectra for Compounds 1 to 9 at the concentration of 10 μM in ethanol and acetonitrile were measured, and the results are respectively shown in the left and right graphs of FIG. 3. Absorbance spectra for Compounds 1 to 9 at the concentration of 10 μM in dimethylformamide and dichloromethane were measured, and the results are respectively shown in the left and right graphs of FIG. 4. Absorbance spectra for Compounds 1 to 9 at the concentration of 10 μM in cyclohexane were measured, and the result is shown in FIG. 5. Absorbance spectra for Compounds 10 to 12 at the concentration of 10 μM in water (a, containing 1% DMSO), acetonitrile (b), and dichloromethane (c) were measured, and the results are shown in FIG. 31. The absorbance spectra were measured using a HP 8453 UV/Vis spectrophotometer. […]

A short description of series [2]: Fluorescence quantum yield (reference rhodamine B). Format: physicochemical. The following applies: water (containing 1% DMSO); FIGS. 15 and 34. The method, then:
Further, fluorescence quantum yields of Compounds 1 to 9 in dichloromethane, acetonitrile, and water (containing 1% DMSO) were measured, and the results are shown in FIG. 15. Fluorescence quantum yields of Compounds 10 to 12 in dichloromethane, acetonitrile, and water (containing 1% DMSO) were measured, and the results are shown in FIG. 34. As a reference compound, rhodamine B was used (fluorescence quantum yield, ΦF=0.6, measured in ethanol).

The nature of series [3]: Two-photon absorption cross-section by two-photon induced fluorescence method. Format: physicochemical. The following applies: water (containing 1% DMSO); excitation 800 nm, 820 nm, 840 nm; FIG. 35. The source says: Specifically, to confirm the fluorescence properties of the two-photon absorbing fluorophores under two-photon excitation, the inventors measured fluorescence spectra by two-photon excitation using a titanium:sapphire oscillator (Ti:sapphire oscillator), which was pumped by a frequency-doubled neodimium:yttrium orthovanadate laser (Nd:YVO4 laser; Verdi, Coherent) with an output power of 5.0 W. Output pulse energy was 40 nJ, and repetition rate was 380 kHz.
In addition, two-photon absorption cross-section values of each of Compounds 1 and 5 to 7 in dichloromethane solution, acetonitrile solution, and water (containing 1% DMSO) were measured, and the results are shown in FIGS. 28 and 29. Two-photon absorption cross-section values of each of Compounds 10 to 12 in a dichloromethane solution, an acetonitrile solution, and water (containing 1% DMSO) were measured, and the results are shown in FIG. 35. As a comparative compound, rhodamine B generally used as a fluorescent probe was used (two-photon absorption cross-section values, GM=300 (740 nm), 470 (760 nm) and 540 (780 nm), measured in an ethanol solution). Two-photon absorption cross-section values were measured by a two-photon induced fluorescence method (Fischer, A. et al. Applied Optics 1995, 34, 1989), 1 GM refers to 10^−50 cm^4 s photon^−1 molecule^−1.

Series [4] is described as follows: Fluorescence spectra / fluorescence intensities in solution. The class given is physicochemical. The following applies: 1 μM in water (containing 1% DMSO); excitation at the maximum absorption wavelength; FIG. 40. The method, then: 10. […] 11. […] 12. […] 32. All fluorescence spectra were measured at the […] (FIG. 14). The fluorescence spectra were measured using a Photon Technical International Fluorescence System.
13(a). […] 13 (b, left) and FIG. 13 (b, right). Referring to FIGS. 9 and 13, it can be confirmed that fluorescence intensities of the two-photon absorbing fluorophores (particularly, Compounds 2 to 8) of the present invention in HEPES buffer (containing 1% DMSO, pH 7.4) and water (containing 1% DMSO) are higher than those of the conventional acedan (Compound 1).
In addition, to compare the fluorescence intensities of the compounds in aqueous solution according to a structural change, fluorescence intensities of Compounds 1, 5, and 13 to 18 at the concentration of 1 μM in water (containing 1% DMSO) were compared, and the results are shown in FIG. 40. The fluorescence intensities were measured through excitation of each compound at the maximum absorption wavelength. […] It can be confirmed that, as the degrees of hydrogen bonding of water molecule to the nitrogen atom in Compounds 13 to 17 are reduced, the fluorescence intensities increase.

The conditions of series [5]: reference compound; measured in ethanol; cited from earlier work.
For series [6] the following is noted: comparative compound, ethanol solution, cited from earlier work.

The values below come from patent US20170327509A1, “TWO-PHOTON ABSORBING FLUOROPHORES AND METHOD FOR CELLULAR IMAGING USING THE SAME” (POSTECH ACADEMY-INDUSTRY FOUNDATION, priority 2014, published 2017).

As a reminder, the melting point is the temperature of the solid-liquid transition.

Where two headings read alike, the source gives them in different places.

`CC(=O)c1ccc2cc(N3C4CCC3CC4)ccc2c1`: the melting point lay in the range of 118 to 120 °C.
`CC(=O)c1ccc2cc(NC(C)C)ccc2c1` [Compound 3, 1-(6-(isopropylamino)naphthalen-2-yl)ethanone] returned a melting point of 112 to 114 °C.
Still for that read-out and setting: the same measure for `CNc1ccc2cc(C(C)=O)ccc2c1` [Compound 4, 1-(6-(methylamino)naphthalen-2-yl)ethanone]: 182 °C; for `CC(=O)c1ccc2cc(NC3CCC(O)CC3)ccc2c1` (centres unmarked) [Compound 5, 1-(6-(4-hydroxycyclohexylamino)naphthalen-2-yl)ethanone]: 186 to 188 °C; for `CC(=O)c1ccc2cc(N3CCOCC3)ccc2c1` [Compound 8, 1-(6-morpholinonaphthalen-2-yl)ethanone]: 149 to 151 °C.
With `CC(=O)c1ccc2cc(N(C)C3CCC(O)CC3)ccc2c1` (centres unmarked) [Compound 9, 1-(6-((4-hydroxycyclohexyl)(methyl)amino)naphthalen-2-yl)ethanone], the melting point was 192 to 194 °C.
Consider `O=C1c2cccc3c(NC4CCC(O)CC4)ccc(c23)C(=O)N1CCO` (centres unmarked) [Compound 10, 6-(4-hydroxycyclohexylamino)-2-(2-hydroxyethyl)-1H-benzo[de]isoquinoline-1,3(2H)-dione], for which, in series [1], the molar extinction coefficients result is “higher than those of the conventional Compound 11 (Formula 11) and Compound 12 (Formula 12)”. The fluorescence quantum yield entry in series [2] was “higher than those of the conventional Compounds 11 and 12”. Further, the “two-photon absorption cross-section value” in series [3] is “higher than those of the conventional Compounds 11 and 12”.
On to `CC(=O)c1ccc2cc(N3CCCC3)ccc2c1` [Compound 18], for which the fluorescence intensities result in series [4] is “increase of fluorescence intensity”.
For the molecule `CCN(CC)c1ccc2c(-c3ccccc3C(=O)O)c3ccc(=[N+](CC)CC)cc-3oc2c1.[Cl-]` [rhodamine B], the “fluorescence quantum yield, ΦF” value in series [5] is reported as 0.6. Also, the “two-photon absorption cross-section value” in series [6] (740 nm) is 300 GM; in series [6] (760 nm), 470 GM; in series [6] (780 nm), 540 GM.
